Results as given in PubChem BioAssay (NCI).
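48-hour exposure; five concentrations; linearly interpolated endpoints. At the GI50, growth is halved. TGI denotes the concentration required for complete inhibition of growth.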

Columns and labels:
Assay in all cases: DTP human tumour cell line panel, 48 h
NCI-H23 lung = system: NCI-H23 lung
NCI-H460 lung = system: NCI-H460 lung
NCI-H522 lung = system: NCI-H522 lung
NCI/ADR-RES ovarian = system: NCI/ADR-RES ovarian
OVCAR-4 ovarian = system: OVCAR-4 ovarian
OVCAR-5 ovarian = system: OVCAR-5 ovarian
OVCAR-8 ovarian = system: OVCAR-8 ovarian
PC-3 prostate = system: PC-3 prostate
RPMI-8226 leukemia = system: RPMI-8226 leukemia
RXF 393 renal = system: RXF 393 renal
SF-268 CNS = system: SF-268 CNS
SF-295 CNS = system: SF-295 CNS
SF-539 CNS = system: SF-539 CNS
SK-MEL-2 melanoma = system: SK-MEL-2 melanoma
SK-MEL-28 melanoma = system: SK-MEL-28 melanoma
SK-MEL-5 melanoma = system: SK-MEL-5 melanoma
SK-OV-3 ovarian = system: SK-OV-3 ovarian
SN12C renal = system: SN12C renal
SNB-19 CNS = system: SNB-19 CNS
SNB-75 CNS = system: SNB-75 CNS
SR leukemia = system: SR leukemia
SW-620 colon = system: SW-620 colon
T-47D breast = system: T-47D breast
TK-10 renal = system: TK-10 renal
U251 CNS = system: U251 CNS
UACC-257 melanoma = system: UACC-257 melanoma
UACC-62 melanoma = system: UACC-62 melanoma
UO-31 renal = system: UO-31 renal

O=C(Nc1ccc(F)cc1)c1cc(-c2ccc(F)cc2F)ccc1O
TGI (NCI-H23 lung): 7.78 µM | GI50 (NCI-H460 lung): 2.98 µM | TGI (NCI-H460 lung): 12.8 µM | GI50 (NCI-H522 lung): 1.83 µM | TGI (NCI-H522 lung): 8.3 µM | GI50 (NCI/ADR-RES ovarian): 2.49 µM | TGI (NCI/ADR-RES ovarian): 8.51 µM | GI50 (OVCAR-4 ovarian): 2.74 µM | TGI (OVCAR-4 ovarian): 45.5 µM | GI50 (OVCAR-5 ovarian): 3.37 µM | TGI (OVCAR-5 ovarian): 37.8 µM | GI50 (OVCAR-8 ovarian): 3.2 µM | TGI (OVCAR-8 ovarian): > 100 µM | GI50 (PC-3 prostate): 2.78 µM | TGI (PC-3 prostate): 19.8 µM | GI50 (RPMI-8226 leukemia): 1.74 µM | TGI (RPMI-8226 leukemia): 6.38 µM | GI50 (RXF 393 renal): 2.75 µM | TGI (RXF 393 renal): 8.04 µM | GI50 (SF-268 CNS): 2.67 µM | TGI (SF-268 CNS): > 100 µM | GI50 (SF-295 CNS): 2.44 µM | TGI (SF-295 CNS): 7.55 µM | GI50 (SF-539 CNS): 3.65 µM | TGI (SF-539 CNS): 18.5 µM | GI50 (SK-MEL-2 melanoma): 1.86 µM | TGI (SK-MEL-2 melanoma): 5.57 µM | GI50 (SK-MEL-28 melanoma): 2.9 µM | TGI (SK-MEL-28 melanoma): > 100 µM | GI50 (SK-MEL-5 melanoma): 1.56 µM | TGI (SK-MEL-5 melanoma): 3.63 µM | GI50 (SK-OV-3 ovarian): 2.65 µM | TGI (SK-OV-3 ovarian): 8.99 µM | GI50 (SN12C renal): 2.36 µM | TGI (SN12C renal): 8.3 µM | GI50 (SNB-19 CNS): 3.36 µM | TGI (SNB-19 CNS): 31.9 µM | GI50 (SNB-75 CNS): 1.84 µM | TGI (SNB-75 CNS): 5.55 µM | GI50 (SR leukemia): 2.93 µM | TGI (SR leukemia): 80.3 µM | GI50 (SW-620 colon): 3.4 µM | TGI (SW-620 colon): > 100 µM | GI50 (T-47D breast): 1.75 µM | TGI (T-47D breast): 8.14 µM | GI50 (TK-10 renal): 2.91 µM | TGI (TK-10 renal): 23.2 µM | GI50 (U251 CNS): 3.23 µM | TGI (U251 CNS): 24.6 µM | GI50 (UACC-257 melanoma): 1.61 µM | TGI (UACC-257 melanoma): 6.97 µM | GI50 (UACC-62 melanoma): 1.39 µM | TGI (UACC-62 melanoma): 4.61 µM | GI50 (UO-31 renal): 2.11 µM | TGI (UO-31 renal): 8.67 µM
